From patent US8722849B2, “Polypeptides” (Novo Nordisk A/S, priority 2011, dated 2014)
Starred links: 1 amine or outer side, 2 acyl side, 3 side chain; linkers in the order of their positions; H or OH if unused. Positions of bridges follow the written chain, without caps; N, C: chain ends. Residues, ends and D or L forms follow the SMILES beside them. *: point of attachment. C20 diacid = O=C(O)CCCCCCCCCCCCCCCCCCC(=O)*; γGlu = O=C(O)[C@H](CCC(=O)[*:2])N[*:1]

Legend:
[1] = test system: food intake; test: Assay (I) efficacy testing on appetite (food intake), ad libitum fed rat model; format: in vivo, Sprague Dawley (SD) rats
Excerpt: In the following examples reference is made to the following Assays: • Assay (I)— Experimental protocol for efficacy testing on appetite using an ad libitum fed rat model • ASSAY (II)a—Functional assay—Human calcitonin and amylin receptor assay • ASSAY (II)b—Functional assay—Rat calcitonin and rat amylin receptor assays • ASSAY (III)—ThT fibrillation assays for the assessment of physical stability of protein formulations • ASSAY (IV)—Determination of solubility • ASSAY (V)—Determination of binding to the human amylin receptor • ASSAY (VI)—Determination of the binding to the rat amylin receptor • ASSAY (VII)—Determination of binding to the human calcitonin receptor • ASSAY (VIII)—Determination of binding to the rat calcitonin receptor • ASSAY (IX)—pK—Determination of T % in mini-pig • ASSAY (X)—pK—Determination of T % in rat ASSAY (I)—Experimental Protocol for Efficacy Testing on Appetite Using an Ad Libitum Fed Rat Model
Sprague Dawley (SD) rats from Taconic Europe, Denmark are used for the experiments. The rats have a body weight 200-250 g at the start of experiment. The rats arrive at least 10-14 days before start of experiment to allow acclimatization to experimental settings. During this period the animals are handled at least 2 times. After arrival rats are housed individually for one week in a reversed light/dark phase (meaning that lights are off during daytime and on during nighttime) […]. Since rats are normally active and eat their major part of their daily food intake during the dark period, rats are dosed in the morning right before lights are turned off. This set-up results in the lowest data variation and highest test sensitivity. The experiment is conducted in the rats' home cages and rats have free access to food and water throughout the acclimatization period and the experiment period. Each dose of derivative is tested in a group of 5-8 rats. A vehicle group of 6-8 rats is included in each set of testing. Rats are dosed once according to body weight with a 0.01-3 mg/kg solution administered intraperitoneally (ip), orally (po) or subcutaneously (sc). The time of dosing is recorded for each group. After dosing, the rats are returned to their home cages, where they then have access to food and water. The food consumption is recorded individually continuously by on-line registration or manually every hour for 7 hours, and then after 24 h and sometimes 48 h. At the end of the experimental session, the animals are euthanised.
The individual data are recorded in Microsoft excel sheets. Outliers are excluded after applying the Grubbs statistical evaluation test for outliers, and the result is presented graphically using the GraphPad Prism program.

[2] = Assay (III) ThT fibrillation assay for physical stability; format: physicochemical
Outline: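 Freshly prepared formulations, pH-adjusted, with 1 μM ThT; four or eight replicates incubated at 37 °C under 960 rpm orbital shaking. Fluorescence (ex 444/em 485 nm) read every 20 min; […]. Peptide concentration measured by RP-HPLC before and after the run.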

ThT pH 4.0 lag time ([2]; Table 8) | ThT pH 4.0 lag time ([2]; Table 9) | ThT pH 4.0 lag time ([2]; ThT fibrillation assay) | ThT pH 4.0 lag time (h) ([2]; ThT fibrillation assay) | SMILES | Food intake reduction 0-24 h 3 nmol/kg (%) ([1]; 0-24 h) | Food intake reduction 24-48 h 3 nmol/kg (%) ([1]; 24-48 h) | Food intake reduction 0-24 h 30 nmol/kg (%) ([1]; 0-24 h, 30 nmol/kg) | Food intake reduction 24-48 h 30 nmol/kg (%) ([1]; 24-48 h, 30 nmol/kg)
>45 h | >45 h | >45 h | >45 h | CC[C@H](C)[C@H](NC(=O)[C@@H]1CCCN1C(=O)CNC(=O)[C@H](Cc1ccccc1)NC(=O)[C@H](CC(N)=O)NC(=O)[C@H](CC(N)=O)NC(=O)[C@H](CO)NC(=O)[C@H](CO)NC(=O)[C@H](Cc1c[nH]cn1)NC(=O)[C@H](Cc1c[nH]cn1)NC(=O)[C@H](CC(C)C)NC(=O)[C@H](Cc1ccccc1)NC(=O)[C@H](CCC(=O)O)NC(=O)[C@H](C)NC(=O)[C@H](CC(C)C)NC(=O)[C@H](CCCNC(=N)N)NC(=O)[C@H](CCC(N)=O)NC(=O)[C@@H](NC(=O)[C@H](C)NC(=O)[C@@H]1CSSC[C@H](NC(=O)[C@H](CCCCN)NC(=O)CC[C@H](NC(=O)CCCCCCCCCCCCCCCCCCC(=O)O)C(=O)O)C(=O)N[C@@H](CC(N)=O)C(=O)N[C@@H]([C@@H](C)O)C(=O)N[C@@H](C)C(=O)N[C@@H]([C@@H](C)O)C(=O)N1)[C@@H](C)O)C(=O)N[C@@H](CC(C)C)C(=O)N1CCC[C@H]1C(=O)N1CCC[C@H]1C(=O)N[C@H](C(=O)N[C@@H](CC(N)=O)C(=O)N[C@H](C(=O)NCC(=O)N[C@@H](CO)C(=O)N[C@@H](CC(N)=O)C(=O)N[C@H](C(=O)N1CCC[C@H]1C(N)=O)[C@@H](C)O)C(C)C)[C@@H](C)O [Example 52, N-alpha-[(S)-4-Carboxy-4-(19-carboxynonadecanoylamino)butyryl]-[Glu14,His17,Pro37]-pramlintide] ({C20 diacid-γGlu}-KCNTATCATQRLAEFLHHSSNNFGPILPPTNVGSNTP-NH2; disulfide 2-7 (inferred); C-terminus assumed) | 62% | 74% |  | 
 |  | 37 h | 37 h | CC[C@H](C)[C@H](NC(=O)[C@@H]1CCCN1C(=O)CNC(=O)[C@H](Cc1ccccc1)NC(=O)[C@H](CC(N)=O)NC(=O)[C@H](CC(N)=O)NC(=O)[C@H](CO)NC(=O)[C@H](CO)NC(=O)[C@H](Cc1c[nH]cn1)NC(=O)[C@H](Cc1c[nH]cn1)NC(=O)[C@H](CC(C)C)NC(=O)[C@H](Cc1ccccc1)NC(=O)[C@H](CCC(=O)O)NC(=O)[C@H](C)NC(=O)[C@H](CC(C)C)NC(=O)[C@H](CCCNC(=N)N)NC(=O)[C@H](CCC(N)=O)NC(=O)[C@@H](NC(=O)[C@H](C)NC(=O)[C@@H]1CSSC[C@H](NC(=O)[C@H](CCCCN)NC(=O)CC[C@H](NC(=O)CCCCCCCCCCCCCCCCCCC(=O)O)C(=O)O)C(=O)N[C@@H](CC(N)=O)C(=O)N[C@@H]([C@@H](C)O)C(=O)N[C@@H](C)C(=O)N[C@@H]([C@@H](C)O)C(=O)N1)[C@@H](C)O)C(=O)N[C@@H](CC(C)C)C(=O)N1CCC[C@H]1C(=O)N1CCC[C@H]1C(=O)N[C@H](C(=O)N[C@@H](CC(N)=O)C(=O)N[C@H](C(=O)NCC(=O)N[C@@H](CO)C(=O)N[C@@H](Cc1c[nH]cn1)C(=O)N[C@H](C(=O)N[C@@H](Cc1ccc(O)cc1)C(N)=O)[C@@H](C)O)C(C)C)[C@@H](C)O [Example 55, N-alpha-[(S)-4-Carboxy-4-(19-carboxynonadecanoylamino)butyryl]-[Glu14,His17,His35]-pramlintide] ({C20 diacid-γGlu}-KCNTATCATQRLAEFLHHSSNNFGPILPPTNVGSHTY-NH2; disulfide 2-7 (inferred)) | 58% | 40% | 88% | 90%
>45 h | >45 h | >45 h | >45 h | CC[C@H](C)[C@H](NC(=O)[C@@H]1CCCN1C(=O)CNC(=O)[C@H](Cc1ccccc1)NC(=O)[C@H](CC(N)=O)NC(=O)[C@H](CC(N)=O)NC(=O)[C@H](CO)NC(=O)[C@H](CO)NC(=O)[C@H](Cc1c[nH]cn1)NC(=O)[C@H](CCCNC(=N)N)NC(=O)[C@H](CC(C)C)NC(=O)[C@H](Cc1ccccc1)NC(=O)[C@H](CCC(=O)O)NC(=O)[C@H](C)NC(=O)[C@H](CC(C)C)NC(=O)[C@H](CCCNC(=N)N)NC(=O)[C@H](CCC(N)=O)NC(=O)[C@@H](NC(=O)[C@H](C)NC(=O)[C@@H]1CSSC[C@H](NC(=O)[C@H](CCCCN)NC(=O)CC[C@H](NC(=O)CCCCCCCCCCCCCCCCCCC(=O)O)C(=O)O)C(=O)N[C@@H](CC(N)=O)C(=O)N[C@@H]([C@@H](C)O)C(=O)N[C@@H](C)C(=O)N[C@@H]([C@@H](C)O)C(=O)N1)[C@@H](C)O)C(=O)N[C@@H](CC(C)C)C(=O)N1CCC[C@H]1C(=O)N1CCC[C@H]1C(=O)N[C@H](C(=O)N[C@@H](CC(N)=O)C(=O)N[C@H](C(=O)NCC(=O)N[C@@H](CO)C(=O)N[C@@H](Cc1c[nH]cn1)C(=O)N[C@H](C(=O)N[C@@H](Cc1ccc(O)cc1)C(N)=O)[C@@H](C)O)C(C)C)[C@@H](C)O [Example 57, N-alpha-[(S)-4-Carboxy-4-(19-carboxynonadecanoylamino)butyryl]-[Glu14,Arg17,His35]-pramlintide] ({C20 diacid-γGlu}-KCNTATCATQRLAEFLRHSSNNFGPILPPTNVGSHTY-NH2; disulfide 2-7 (inferred); C-terminus assumed) | 17% | 0% |  | 
25.6 h |  | 25.6 h | 25.6 h | CC[C@H](C)[C@H](NC(=O)[C@@H]1CCCN1C(=O)CNC(=O)[C@H](Cc1ccccc1)NC(=O)[C@H](CC(N)=O)NC(=O)[C@H](CC(N)=O)NC(=O)[C@H](CO)NC(=O)[C@H](CO)NC(=O)[C@H](Cc1c[nH]cn1)NC(=O)[C@H](Cc1c[nH]cn1)NC(=O)[C@H](CC(C)C)NC(=O)[C@H](Cc1ccccc1)NC(=O)[C@H](CCC(=O)O)NC(=O)[C@H](C)NC(=O)[C@H](CC(C)C)NC(=O)[C@H](CCCNC(=N)N)NC(=O)[C@H](CCC(N)=O)NC(=O)[C@@H](NC(=O)[C@H](C)NC(=O)[C@@H]1CSSC[C@H](NC(=O)[C@H](Cc2c[nH]cn2)NC(=O)CC[C@H](NC(=O)CCCCCCCCCCCCCCCCCCC(=O)O)C(=O)O)C(=O)N[C@@H](CC(N)=O)C(=O)N[C@@H]([C@@H](C)O)C(=O)N[C@@H](C)C(=O)N[C@@H]([C@@H](C)O)C(=O)N1)[C@@H](C)O)C(=O)N[C@@H](CC(C)C)C(=O)N1CCC[C@H]1C(=O)N1CCC[C@H]1C(=O)N[C@H](C(=O)N[C@@H](CC(N)=O)C(=O)N[C@H](C(=O)NCC(=O)N[C@@H](CO)C(=O)N[C@@H](CC(N)=O)C(=O)N[C@H](C(=O)N1CCC[C@H]1C(N)=O)[C@@H](C)O)C(C)C)[C@@H](C)O [Example 84, N-alpha-[(S)-4-Carboxy-4-(19-carboxynonadecanoylamino)butyryl]-[His1,Glu14,His17,Pro37]-pramlintide] ({C20 diacid-γGlu}-HCNTATCATQRLAEFLHHSSNNFGPILPPTNVGSNTP-NH2; disulfide 2-7 (inferred); C-terminus assumed) | 68% | 67% |  | 
